Data published in ChEMBL document CHEMBL5705896 (ACS Chem Biol, 2013).

How the values were obtained:
[1] = molecular target: Tyrosine-protein kinase receptor TYRO3 (Homo sapiens) (UniProt Q06418); test: Inhibition of human cytoplasmic domain N-terminal GST tagged TYRO3 (453 to 890 end residues) expressed in baculovirus expression system using CSKtide as substrate at 10 uM by mobility shift assay relative to control
[2] = Cmax in Swiss albino mouse at 15 to 150 mg/kg administered as single ip dose measured upto 24 hrs; type: ADME, organism-based; conditions: in vivo, dose 15-150 mg/kg
[3] = molecular target: Alpha-2A adrenergic receptor (Homo sapiens) (UniProt P08913); test: Inhibition of Alpha2A receptor (unknown origin) at 10 uM by radioligand binding assay relative to control
Sequence of Alpha-2A adrenergic receptor (Homo sapiens) (P08913 whole entry): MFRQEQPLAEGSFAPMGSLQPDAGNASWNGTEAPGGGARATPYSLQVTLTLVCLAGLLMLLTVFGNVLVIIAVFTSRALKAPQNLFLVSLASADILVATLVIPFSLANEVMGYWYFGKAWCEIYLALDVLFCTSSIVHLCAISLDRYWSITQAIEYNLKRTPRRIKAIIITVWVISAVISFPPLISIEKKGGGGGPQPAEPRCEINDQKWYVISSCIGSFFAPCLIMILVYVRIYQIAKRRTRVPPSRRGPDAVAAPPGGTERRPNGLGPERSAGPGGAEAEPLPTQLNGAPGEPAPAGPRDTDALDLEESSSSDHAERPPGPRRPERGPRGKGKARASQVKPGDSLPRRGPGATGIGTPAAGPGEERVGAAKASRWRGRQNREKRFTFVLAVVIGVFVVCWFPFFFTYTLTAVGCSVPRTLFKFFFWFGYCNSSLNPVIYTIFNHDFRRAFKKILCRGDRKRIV

[4] = molecular target: D(3) dopamine receptor (Homo sapiens) (UniProt P35462); test: Inhibition of dopamine D3 receptor (unknown origin) at 10 uM by radioligand binding assay relative to control
[5] = molecular target: Muscarinic acetylcholine receptor M2 (Homo sapiens) (UniProt P08172); test: Inhibition of M2 receptor (unknown origin) at 10 uM by radioligand binding assay relative to control
[6] = molecular target: Tyrosine-protein kinase JAK3 (Homo sapiens) (UniProt P52333); test: Inhibition of human catalytic domain N-terminal his tagged JAK3 (795 to 1124 end residues) expressed in baculovirus expression system using Srctide as substrate at 10 uM by mobility shift assay relative to control
Sequence of Tyrosine-protein kinase JAK3 (Homo sapiens) (P52333 whole entry, the tested form may be a part): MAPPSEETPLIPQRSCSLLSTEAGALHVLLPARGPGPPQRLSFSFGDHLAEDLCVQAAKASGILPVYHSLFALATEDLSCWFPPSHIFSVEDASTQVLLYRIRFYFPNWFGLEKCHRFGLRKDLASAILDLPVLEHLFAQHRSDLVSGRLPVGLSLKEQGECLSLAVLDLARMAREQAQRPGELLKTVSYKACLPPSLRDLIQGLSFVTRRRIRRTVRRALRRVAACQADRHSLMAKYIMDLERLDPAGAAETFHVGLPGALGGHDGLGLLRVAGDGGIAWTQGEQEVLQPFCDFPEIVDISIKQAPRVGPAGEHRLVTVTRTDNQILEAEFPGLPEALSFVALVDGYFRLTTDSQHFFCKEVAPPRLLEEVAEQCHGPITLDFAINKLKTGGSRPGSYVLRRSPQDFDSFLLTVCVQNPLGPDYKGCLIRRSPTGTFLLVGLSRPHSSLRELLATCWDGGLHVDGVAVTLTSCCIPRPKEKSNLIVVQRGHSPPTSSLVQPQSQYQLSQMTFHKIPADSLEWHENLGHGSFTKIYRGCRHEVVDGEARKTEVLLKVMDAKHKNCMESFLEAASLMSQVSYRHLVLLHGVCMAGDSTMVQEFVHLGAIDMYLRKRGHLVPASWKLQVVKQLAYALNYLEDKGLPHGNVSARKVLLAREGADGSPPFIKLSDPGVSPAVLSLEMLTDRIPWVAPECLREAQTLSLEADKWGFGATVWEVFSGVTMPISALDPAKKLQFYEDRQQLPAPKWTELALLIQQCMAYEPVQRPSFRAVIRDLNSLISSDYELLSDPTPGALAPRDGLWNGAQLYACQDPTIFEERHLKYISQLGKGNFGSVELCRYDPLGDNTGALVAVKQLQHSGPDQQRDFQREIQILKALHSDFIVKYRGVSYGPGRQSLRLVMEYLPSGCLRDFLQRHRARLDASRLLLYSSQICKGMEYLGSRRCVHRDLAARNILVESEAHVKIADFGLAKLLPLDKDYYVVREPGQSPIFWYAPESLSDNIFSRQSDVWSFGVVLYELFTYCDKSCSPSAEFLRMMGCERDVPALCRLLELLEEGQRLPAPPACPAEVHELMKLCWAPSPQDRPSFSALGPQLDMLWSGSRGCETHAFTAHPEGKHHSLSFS

[7] = molecular target: Interleukin-1 receptor-associated kinase 4 (Homo sapiens) (UniProt Q9NWZ3); test: Inhibition of full length human N-terminal GST tagged IRAK4 (1 to 460 end residues) expressed in baculovirus expression system using IRAK1 as substrate at 10 uM by mobility shift assay relative to control
[8] = molecular target: Kappa-type opioid receptor (Homo sapiens) (UniProt P41145); test: Inhibition of KOR (unknown origin) at 10 uM by radioligand binding assay relative to control
[9] = molecular target: Sodium-dependent serotonin transporter (Homo sapiens) (UniProt P31645); test: Inhibition of SERT (unknown origin) at 10 uM by radioligand binding assay relative to control
Sequence of Sodium-dependent serotonin transporter (Homo sapiens) (P31645 whole entry, looked up): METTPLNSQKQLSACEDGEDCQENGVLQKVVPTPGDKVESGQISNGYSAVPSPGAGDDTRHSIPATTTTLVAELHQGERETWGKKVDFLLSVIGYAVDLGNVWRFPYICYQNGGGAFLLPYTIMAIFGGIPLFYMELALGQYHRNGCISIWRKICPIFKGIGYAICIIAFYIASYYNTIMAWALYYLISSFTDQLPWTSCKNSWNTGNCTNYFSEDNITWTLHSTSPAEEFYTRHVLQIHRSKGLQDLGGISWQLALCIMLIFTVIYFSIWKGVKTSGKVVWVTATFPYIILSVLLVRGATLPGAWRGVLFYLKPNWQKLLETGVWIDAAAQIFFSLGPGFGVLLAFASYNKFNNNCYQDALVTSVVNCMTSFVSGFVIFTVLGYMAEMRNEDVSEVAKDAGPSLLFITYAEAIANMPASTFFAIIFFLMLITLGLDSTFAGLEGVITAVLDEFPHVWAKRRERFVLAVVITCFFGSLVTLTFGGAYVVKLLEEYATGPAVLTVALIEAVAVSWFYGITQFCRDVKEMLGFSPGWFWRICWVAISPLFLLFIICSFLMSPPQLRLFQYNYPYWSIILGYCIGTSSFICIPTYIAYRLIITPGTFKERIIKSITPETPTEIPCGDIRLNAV

[10] = molecular target: Tyrosine-protein kinase CSK (Homo sapiens) (UniProt P41240); test: Inhibition of full length human N-terminal GST tagged CSK (1 to 450 end residues) expressed in baculovirus expression system using Srctide as substrate at 10 uM by mobility shift assay relative to control
Sequence of Tyrosine-protein kinase CSK (Homo sapiens) (P41240 2-450 limits assumed): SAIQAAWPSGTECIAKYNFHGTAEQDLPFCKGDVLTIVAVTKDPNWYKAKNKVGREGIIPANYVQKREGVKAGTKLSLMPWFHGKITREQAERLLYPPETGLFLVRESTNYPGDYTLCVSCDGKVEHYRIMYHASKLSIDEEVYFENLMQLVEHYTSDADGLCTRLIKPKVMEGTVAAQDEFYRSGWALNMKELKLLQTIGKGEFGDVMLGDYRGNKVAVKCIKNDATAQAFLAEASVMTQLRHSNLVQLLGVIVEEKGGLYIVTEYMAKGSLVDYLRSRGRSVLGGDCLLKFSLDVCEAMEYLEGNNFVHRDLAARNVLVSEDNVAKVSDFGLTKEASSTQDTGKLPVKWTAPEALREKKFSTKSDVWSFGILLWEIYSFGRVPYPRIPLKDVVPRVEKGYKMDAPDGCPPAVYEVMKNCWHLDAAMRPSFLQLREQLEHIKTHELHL

[11] = molecular target: CDK2/Cyclin A2 (Homo sapiens) (UniProt P24941+P20248); test: Inhibition of full length human N-terminal GST tagged CDK2 (1 to 298 residues)/GST tagged CycA2 (1 to 432 end residues) expressed in baculovirus expression system using histone H1 as substrate at 10 uM by mobility shift assay relative to control
[12] = molecular target: Histamine H2 receptor (Homo sapiens) (UniProt P25021); test: Inhibition of H2 receptor (unknown origin) at 10 uM by radioligand binding assay relative to control
[13] = molecular target: Alpha-2B adrenergic receptor (Homo sapiens) (UniProt P18089); test: Inhibition of Alpha2B receptor (unknown origin) at 10 uM by radioligand binding assay relative to control
[14] = molecular target: Serine/threonine-protein kinase 4 (Homo sapiens) (UniProt Q13043); test: Inhibition of full length human N-terminal GST tagged MST1 (1 to 487 end residues) expressed in baculovirus expression system using IRS1 as substrate at 10 uM by mobility shift assay relative to control
[15] = molecular target: 5-hydroxytryptamine receptor 1D (Homo sapiens) (UniProt P28221); test: Inhibition of 5-HT1D receptor (unknown origin) at 10 uM by radioligand binding assay relative to control
Sequence of 5-hydroxytryptamine receptor 1D (Homo sapiens) (P28221 whole entry): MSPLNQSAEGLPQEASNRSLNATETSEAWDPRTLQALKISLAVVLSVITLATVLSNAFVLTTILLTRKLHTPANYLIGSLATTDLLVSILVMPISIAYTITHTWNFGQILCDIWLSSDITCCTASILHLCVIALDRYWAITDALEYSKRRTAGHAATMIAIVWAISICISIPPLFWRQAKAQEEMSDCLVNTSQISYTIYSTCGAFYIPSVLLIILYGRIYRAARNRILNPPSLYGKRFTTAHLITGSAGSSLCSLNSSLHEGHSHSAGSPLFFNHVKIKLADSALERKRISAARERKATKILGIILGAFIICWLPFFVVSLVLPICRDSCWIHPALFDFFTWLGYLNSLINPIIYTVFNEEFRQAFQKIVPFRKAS

[16] = molecular target: Protein arginine N-methyltransferase 1 (Homo sapiens, UniProt Q99873); test: Inhibition of PRMT1 (unknown origin) using [3H-SAM] as substrate incubated for 1 hr by scintillation proximity assay
[17] = molecular target: 5-hydroxytryptamine receptor 2A (Homo sapiens) (UniProt P28223); test: Inhibition of 5-HT2A receptor (unknown origin) at 10 uM by radioligand binding assay relative to control
Sequence of 5-hydroxytryptamine receptor 2A (Homo sapiens) (P28223 whole entry): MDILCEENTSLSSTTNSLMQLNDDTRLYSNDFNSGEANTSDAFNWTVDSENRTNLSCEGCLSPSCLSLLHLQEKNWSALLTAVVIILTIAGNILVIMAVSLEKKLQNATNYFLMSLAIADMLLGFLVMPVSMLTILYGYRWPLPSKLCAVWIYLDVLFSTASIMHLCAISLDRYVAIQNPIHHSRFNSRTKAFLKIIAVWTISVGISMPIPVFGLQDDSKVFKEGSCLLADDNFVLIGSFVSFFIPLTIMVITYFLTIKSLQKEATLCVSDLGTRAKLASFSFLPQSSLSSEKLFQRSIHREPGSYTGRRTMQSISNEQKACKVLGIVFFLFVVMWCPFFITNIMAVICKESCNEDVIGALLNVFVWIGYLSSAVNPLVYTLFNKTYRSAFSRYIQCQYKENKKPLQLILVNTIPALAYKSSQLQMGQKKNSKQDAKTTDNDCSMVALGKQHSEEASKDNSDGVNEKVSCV

[18] = molecular target: Histone-lysine N-methyltransferase, H3 lysine-79 specific (Homo sapiens, UniProt Q8TEK3); test: Inhibition of DOT1L (unknown origin) using [3H-SAM] as substrate incubated for 1 hr by scintillation proximity assay
[19] = molecular target: Serine/threonine-protein kinase Nek2 (Homo sapiens) (UniProt P51955); test: Inhibition of full length human N-terminal his-tagged NEK2 (1 to 445 end residues) expressed in baculovirus expression system using CDK7 peptide as substrate at 10 uM by mobility shift assay relative to control
[20] = molecular target: Casein kinase I isoform epsilon (Homo sapiens) (UniProt P49674); test: Inhibition of human catalytic domain N-terminal GST tagged CK1epsilon (1 to 348 residues) expressed in baculovirus expression system using ck-tide as substrate at 10 uM by mobility shift assay relative to control
[21] = molecular target: Histone-lysine N-methyltransferase EHMT2 (Homo sapiens, UniProt Q96KQ7); test: Inhibition of G9a (unknown origin) using [3H-SAM] as substrate incubated for 1 hr by scintillation proximity assay
[22] = molecular target: Serine/threonine-protein kinase Sgk1 (Homo sapiens) (UniProt O00141); test: Inhibition of truncated human N-terminal GST-tagged SGK (61 to 431 end residues) expressed in baculovirus expression system using SGKtide as substrate at 10 uM by mobility shift assay relative to control
[23] = molecular target: Ephrin type-B receptor 4 (Homo sapiens) (UniProt P54760); test: Inhibition of human cytoplasmic domain N-terminal GST tagged EPHB4 (577 to 987 end residues) expressed in baculovirus expression system using Blk/lyntide as substrate at 10 uM by mobility shift assay relative to control
Sequence of Ephrin type-B receptor 4 (Homo sapiens) (P54760 whole entry, the tested form may be a part): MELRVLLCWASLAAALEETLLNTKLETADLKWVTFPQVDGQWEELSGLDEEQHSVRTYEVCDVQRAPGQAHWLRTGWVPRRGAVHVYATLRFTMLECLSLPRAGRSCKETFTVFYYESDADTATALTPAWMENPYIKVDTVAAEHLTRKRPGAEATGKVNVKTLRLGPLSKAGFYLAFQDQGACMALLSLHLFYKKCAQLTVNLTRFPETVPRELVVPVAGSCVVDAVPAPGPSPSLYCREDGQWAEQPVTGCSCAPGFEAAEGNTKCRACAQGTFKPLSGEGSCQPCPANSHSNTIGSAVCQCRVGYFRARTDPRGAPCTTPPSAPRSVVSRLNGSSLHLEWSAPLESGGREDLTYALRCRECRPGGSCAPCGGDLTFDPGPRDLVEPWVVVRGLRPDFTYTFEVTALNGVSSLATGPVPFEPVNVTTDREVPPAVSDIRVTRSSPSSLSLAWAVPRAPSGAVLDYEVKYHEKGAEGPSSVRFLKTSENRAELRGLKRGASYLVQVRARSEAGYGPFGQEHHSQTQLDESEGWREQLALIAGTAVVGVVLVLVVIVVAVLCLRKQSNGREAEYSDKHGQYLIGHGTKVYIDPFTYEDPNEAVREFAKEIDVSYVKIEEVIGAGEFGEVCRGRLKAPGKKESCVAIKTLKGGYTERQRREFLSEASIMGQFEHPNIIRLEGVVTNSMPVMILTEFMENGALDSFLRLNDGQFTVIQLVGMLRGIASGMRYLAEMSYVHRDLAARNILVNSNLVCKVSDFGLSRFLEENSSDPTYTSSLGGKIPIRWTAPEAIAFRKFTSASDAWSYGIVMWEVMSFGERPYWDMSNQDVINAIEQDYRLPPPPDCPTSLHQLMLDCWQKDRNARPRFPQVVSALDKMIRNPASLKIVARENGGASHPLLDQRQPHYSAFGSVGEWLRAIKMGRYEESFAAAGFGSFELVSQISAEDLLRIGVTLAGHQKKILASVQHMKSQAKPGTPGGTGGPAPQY

[24] = molecular target: D(4) dopamine receptor (Homo sapiens) (UniProt P21917); test: Inhibition of dopamine D4 receptor (unknown origin) at 10 uM by radioligand binding assay relative to control
[25] = molecular target: Delta-type opioid receptor (Homo sapiens) (UniProt P41143); test: Inhibition of DOR (unknown origin) at 10 uM by radioligand binding assay relative to control
[26] = molecular target: Sigma intracellular receptor 2 (Homo sapiens, UniProt Q5BJF2); test: Inhibition of Sigma2 receptor (unknown origin) at 10 uM by radioligand binding assay relative to control
Sequence of Sigma intracellular receptor 2 (Q5BJF2 whole entry): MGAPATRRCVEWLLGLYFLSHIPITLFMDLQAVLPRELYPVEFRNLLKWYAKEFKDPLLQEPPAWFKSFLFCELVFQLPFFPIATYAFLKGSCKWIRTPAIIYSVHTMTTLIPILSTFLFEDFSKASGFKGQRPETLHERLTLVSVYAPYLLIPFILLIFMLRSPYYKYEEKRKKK

[27] = molecular target: Mitogen-activated protein kinase 1 (Homo sapiens) (UniProt P28482); test: Inhibition of full length human N-terminal GST tagged Erk2 (1 to 360 end residues) expressed in Escherichia coli expression system using modified Erktide as substrate at 10 uM by mobility shift assay relative to control
[28] = molecular target: Sigma non-opioid intracellular receptor 1 (Homo sapiens) (UniProt Q99720); test: Inhibition of Sigma1 receptor (unknown origin) at 10 uM by radioligand binding assay relative to control
Sequence of Sigma non-opioid intracellular receptor 1 (Homo sapiens) (Q99720 whole entry): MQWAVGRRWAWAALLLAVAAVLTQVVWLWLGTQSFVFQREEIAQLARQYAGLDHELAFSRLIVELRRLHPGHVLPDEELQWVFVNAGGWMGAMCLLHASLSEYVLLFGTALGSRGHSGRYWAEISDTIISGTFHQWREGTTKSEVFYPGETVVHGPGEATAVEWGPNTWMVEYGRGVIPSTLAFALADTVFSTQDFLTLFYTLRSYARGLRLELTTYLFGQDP

[29] = molecular target: Beta-2 adrenergic receptor (Homo sapiens) (UniProt P07550); test: Inhibition of Beta2 receptor (unknown origin) at 10 uM by radioligand binding assay relative to control
DB = test: Antiproliferative activity against human DB cells assessed as reduction in cell viability at 5000 nM by cell proliferation assay relative to control; type: functional

CCCc1cc(C)[nH]c(=O)c1CNC(=O)c1cc(-c2ccc(N3CCN(C(C)C)CC3)nc2)cc2c1cnn2C(C)C
inhibition [1]: -1%
Cmax [2]: 9.7 µM
inhibition [3]: 14%
inhibition [4]: 28%
inhibition [5]: 41%
inhibition [6]: -8%
inhibition [7]: -7%
inhibition [8]: 34%
inhibition [9]: 6%
inhibition [10]: -4%
inhibition [11]: -3%
inhibition [12]: 30%
inhibition [13]: 48%
inhibition [14]: -5%
inhibition [15]: 50%
IC50 [16]: > 100 µM
inhibition [17]: 39%
IC50 [18]: > 100 µM
inhibition [19]: -4%
inhibition [20]: -4%
IC50 [21]: > 100 µM
inhibition [22]: -3%
inhibition [23]: -6%
inhibition [24]: 2%
inhibition [25]: 21%
inhibition [26]: 93%
inhibition [27]: 3%
inhibition [28]: 57%
inhibition [29]: 14%
Activity (DB): 100%
